Data from US4396628A (priority 1982, dated 1983).
“Also recorded” adds a separate entry of the source. Where two headings read alike, the source gives them in different places.

Legend:
[1] = tested on: Swiss 3T3 cells; experiment: cytotoxicity and cellular RNA synthesis in drug-treated Swiss 3T3 cultures; details: Swiss 3T3, experimental protocol of FIG. 2
[2] = tested on: vesicular stomatitis virus (VSV); type: cell-based, vesicular stomatitis virus; Swiss 3T3 mouse cells; details: for effect on uptake of VSV and α2 M via coated pits: Swiss 3T3, EM
[3] = tested on: α2 M in coated pits, Swiss 3T3 cells; experiment: electron microscopy (peroxidase staining) of α2 M appearance in coated pits of Swiss 3T3 cells; type: cell-based, mouse; details: 250 μg/ml α2 M; for α2 M appearance in coated pits: 45 min at 4° C., varying inhibitor concentrations
Experimental: Swiss 3T3 cells were incubated with 250 μg/ml α2 M at 4° C., with and without inhibitor. Em localization of α2 M was performed using a peroxidase staining technique.
Varying concentrations of amantadine and rimantadine were present during the incubation period. The cells were then washed, fixed for EM and the α2 M located by the peroxidase method. […] In the absence of inhibitors, α2 M was easily detected in coated pits by the peroxidase techniques (FIG. 5B).

[4] = tested on: vesicular stomatitis virus (VSV); experiment: microbe, parasite or virus in culture; type: cell-based, vesicular stomatitis virus; Swiss 3T3 mouse cells; details: for VSV-dependent RNA synthesis when VSV neutralizing antibody omitted (reversibility): Swiss 3T3, inhibitor-treated cultures; for IC50: Vesicular stomatitis virus, Swiss-3T3, in Mus musculus, 10 min, read-out: half-maximal inhibitory concentration, VSV dependent RNA synthesis; for effect on VSV entry / VSV dependent RNA synthesis: in words
[5] = tested on: Swiss 3T3 cells
[6] = biological target: T1, guinea pig liver transglutaminase (Cavia cutleri, UniProt P08587); experiment: guinea pig liver transglutaminase activity, incorporation of 3H-putrescine into casein; type: biochemical; details: for IC50: 3H-putrescine into casein, read-out: Half-maximal Inhibitory Concentration, transglutaminase; for potency ranking in the transglutaminase assay: in words
T1 construct: guinea pig liver transglutaminase activity; from tissue; host or cells: guinea pig liver
T1 sequence (P08587 2-690): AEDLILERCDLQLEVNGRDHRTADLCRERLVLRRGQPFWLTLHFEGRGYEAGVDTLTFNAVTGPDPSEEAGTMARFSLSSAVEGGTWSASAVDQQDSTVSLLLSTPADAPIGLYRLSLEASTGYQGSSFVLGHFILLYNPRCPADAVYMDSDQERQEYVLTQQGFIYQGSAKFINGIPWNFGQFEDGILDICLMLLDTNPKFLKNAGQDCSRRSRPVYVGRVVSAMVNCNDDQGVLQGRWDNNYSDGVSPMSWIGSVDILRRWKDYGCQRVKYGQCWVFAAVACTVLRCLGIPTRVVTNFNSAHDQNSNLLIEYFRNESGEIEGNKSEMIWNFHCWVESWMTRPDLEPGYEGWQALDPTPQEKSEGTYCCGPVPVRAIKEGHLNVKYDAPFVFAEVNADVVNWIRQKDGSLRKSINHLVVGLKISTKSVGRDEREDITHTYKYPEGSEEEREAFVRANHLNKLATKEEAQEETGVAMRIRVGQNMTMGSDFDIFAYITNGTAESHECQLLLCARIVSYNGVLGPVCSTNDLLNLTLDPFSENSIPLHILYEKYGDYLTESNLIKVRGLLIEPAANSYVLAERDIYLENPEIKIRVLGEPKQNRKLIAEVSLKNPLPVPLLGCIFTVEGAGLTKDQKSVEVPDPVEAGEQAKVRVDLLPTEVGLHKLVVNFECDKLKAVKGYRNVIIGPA
Experimental: Effect of Dansylcadaverine, Amantadine, and Rimantadine
on the Activity of Guinea Pig Liver Transglutaminase
Enzyme activity was measured by the incorporation of ^3 H-putrescine into casein. All three inhibitors of viral and α2 M internalization were also inhibitory in the transglutaminase assay.

[7] = tested on: α2 macroglobulin (α2 M) uptake, Swiss 3T3 cells; experiment: uptake (internalization) of 125I-α2 macroglobulin by Swiss 3T3 cells; type: cell-based, mouse; details: for IC50: Mus musculus, 0.75 h, Swiss 3T3, 0.5 μg/ml 125I-α2 M, 45 min at 37° C., read-out: half-maximal inhibitory concentration, α2 M uptake; for effect on α2 macroglobulin uptake: in words
[8] = tested on: vesicular stomatitis virus (VSV); type: cell-based, vesicular stomatitis virus; Swiss 3T3 mouse cells; details: 200 μM; 10 min at 37° C.; MOI 500

SMILES | cytotoxicity [1] | effect on uptake of VSV and α2 M via coated pits [2] | α2 M appearance in coated pits [3] | α2 M localization by EM ([3]; 5 mM amantadine, 4° C. (FIG. 5C)) | VSV-dependent RNA synthesis when VSV neutralizing antibody omitted (reversibility) [4] | IC50 [4] | effect on VSV entry / VSV dependent RNA synthesis [4] | cellular RNA synthesis, drug-treated versus control cultures [5] | IC50 [6] | potency ranking in the transglutaminase assay [6] | IC50 [7] | effect on α2 macroglobulin uptake [7] | coated pit appearance in VSV-infected cells by EM ([2]; 100 μM dansylcadaverine (FIG. 4D)) | coated pit appearance in VSV-infected cells by EM ([2]; 500 μM dansylcadaverine (FIG. 4E)) | intracellular VSV G protein / VSV uptake by immunofluorescence [8] | potency relative to amantadine, VSV uptake (antiviral) ([4]; dansylcadaverine versus amantadine) | coated pit appearance in VSV-infected cells by EM ([2]; 1 mM rimantadine (FIG. 4F)) | α2 M localization by EM ([3]; 1 mM rimantadine, 4° C. (FIG. 5D))
NC12CC3CC(CC(C3)C1)C2 [amantadine, 1-adamantanamine] | no evidence of cytotoxicity | drastically perturbed this uptake mechanism | inhibition of α2 M appearance in coated pits | α2 M bound diffusely to the plasma membrane | control levels of VSV-dependent RNA synthesis | 1000 µM | reduction of VSV-dependent RNA synthesis; also recorded: inhibit VSV entry; also recorded: reduced VSV dependent RNA synthesis | equivalent in control and drug-treated cultures | 20000 µM | third | 2500 µM | inhibit the uptake of α2 macroglobulin | – | – | – | – | – | –
CN(C)c1cccc2c(S(=O)(=O)NCCCCCN)cccc12 [dansylcadaverine] | no evidence of cytotoxicity | drastically perturbed this uptake mechanism | – | – | control levels of VSV-dependent RNA synthesis | 50 µM | blocking virus (such as vesicular stomatitis virus, VSV), and α2 macroglobulin uptake; also recorded: reduction of VSV-dependent RNA synthesis; also recorded: inhibit VSV entry; also recorded: reduced VSV dependent RNA synthesis | equivalent in control and drug-treated cultures | 200 µM | most potent | 150 µM | inhibit the uptake of α2 macroglobulin | vacant coated pit | vacant coated pit | little or no G protein | 20 fold | – | –
CC(N)C12CC3CC(CC(C3)C1)C2 (stereo not drawn) [rimantadine] | – | drastically perturbed this uptake mechanism | inhibition of α2 M appearance in coated pits | – | – | – | – | – | 5000 µM | second most potent | 500 µM | – | – | – | – | – | vacant coated pit | α2 M bound to plasma membrane
